Here are results for 2 molecules from patent publication US20100179225A1, “POI Prevention” (CYTOKINE PHARMASCIENCES, INC., priority 2008, published 2010).

Series [1] relates to MIP-1α mRNA. Briefly: Proinflammatory gene expression in ME, real-time RT-PCR: MIP-1α. As to conditions: 5 mg/kg i.v. preoperative, vs placebo IM. It counts as in vivo, mice. An excerpt:
(§1) The small bowel of the animals was subjected to a standardized, surgical manipulation (IM) as described previously (Kalff J C, Schraut W H, Simmons R L et al. Surgical manipulation of the gut elicits an intestinal muscularis inflammatory response resulting in postsurgical ileus. Ann Surg 1998; 228:652-663; Wehner S, Schwarz N T, Hundsdoerfer R et al. Induction of IL-6 within the rodent intestinal muscularis after intestinal surgical stress. Surgery 2005; 137:436-446). In brief, after anesthesia a midline abdominal incision was made into the peritoneal cavity. […]
(§2) Proinflammatory gene expression was analyzed in placebo and CNI-1493 (5 mg/kg) treated animals at 1, 3, 6 and 24 hours after operation; n=5-7 each group. […] Total RNA was analyzed in ME specimen that was prepared as described before (Wehner S, Behrendt F F, Lyutenski B N et al. Inhibition of macrophage function prevents intestinal inflammation and postoperative ileus in rodents. Gut 2007; 56:176-185). […] Expression of mRNA was quantified in triplicate by a RT-PCR with gene expression assays for […] (MCP-1; #Mm00441242_m1), CCL3 (MIP-1α #Mm00441258_m1), IL-6 (Assay ID #Mm00446190_ml), TNF-α (#Mm00443258_m1) and ICAM-1 (#Mm00516023_m1). […] Data quantification was performed by the ΔΔCT method. […]
Background: In qPCR the cycle at which signal appears reflects the starting amount.

The test system of series [2] is IL-6 mRNA. The experiment in a line: Proinflammatory gene expression in ME, real-time RT-PCR: IL-6. Conditions: 5 mg/kg i.v. preoperative; 6 hours after IM; vs placebo IM. It counts as in vivo, mice.
From the text: as §1, §2

For series [3], the system named is ICAM-1 mRNA. The experiment in a line: Proinflammatory gene expression in ME, real-time RT-PCR: ICAM-1. The series is classed as in vivo, mice. As to conditions: 5 mg/kg i.v. preoperative.
From the text: as §1, §2

Series [4] deals with C57BL/6J mice. The experiment in a line: Anastomotic wound healing (hydroxyproline content, bursting pressure), mouse. Conditions: 5 mg/kg i.v. 90 minutes before transection; POD 2, 5 and 10. It counts as in vivo. As to the method:
C57BL/6J mice were treated with 0 mg/kg (placebo) or 5 mg/kg CNI-1493 90 minutes before colonic transection followed by an anastomosis with 8-10 interrupted polypropylene 8.0 sutures. On postoperative days (POD) 2, 5 and 10 anastomotic tissue was investigated for disturbances of wound healing by measurement of hydroxyproline content and bursting pressure.
Hydroxyproline content was determined from an 1 cm perianastomotic region as described before (Woessner J. F., Jr. The determination of hydroxyproline in tissue and protein samples containing small proportions of this imino acid. Arch Biochem Biophys 1961; 93:440-447). Results were normalized as micrograms of hydroxyproline per gram tissue.
Anastomotic bursting pressure (ABP) was measured directly after sacrifice and sampling a 3 cm colonic segment including the anastomotic site. The anastomotic specimen was cleared from feces and ligated twice at the distal end using a 6-0 polyglactin (Vicryl™, Ethicon, Belgium) suture. An 18 G arterial catheter (Vygon, France) was inserted intraluminally within the specimen at the proximal end and two stay sutures were tied to prevent leakage. […] The intraluminal pressure (mmHg) was measured and recorded using a pressure transducer with an amplifier and recorded by the Biopac A/D systems (Biopac Systems, Goleta, USA). […]

Series [5] deals with swine. Briefly: Gastrointestinal transit in swine (radio-opaque globes, geometric center) after IM. It counts as in vivo. As to conditions: 24 h after operation, mean+/−SEM. As to the method:
Swine were fed with CPSI 2364 or placebo 14 hours and three hours before operation. In the iv group, CPSI 2364 was applied once two hours before operation. All animals were fed (non fasted). After premedication animals were intubated and a central venous catheter was applied. A laparotomy was performed under sterile conditions. The whole small bowel was eventrated and manipulated twice from duodenum to cecum between two fingers. In the sham group, a laparotomy was performed without intestinal manipulation. At the end of the operation, 15 radio-opaque globes were placed in the proximal small bowel. The abdominal wall was closed and swine were brought to an intensive care unit.
Swine underwent intestinal manipulation (IM) or laparotomy without IM (Sham). CPSI-2364 (1 mg/kg) or placebo (mannitol 2.5%) were administered orally (p.o.) twice at 14 hours and 3 hours before operation or intravenously (i.v.) once at 2 hours before operation. At the end of the operation, 15 radio-opaque globes were placed in the proximal small bowel. Twenty-four hours after operation animals were sacrificed and the radio-opaque globes were detected by x-rays radiography and the distribution along the gastrointestinal tract was calculated as the geometric center **p<0.001 vs. indicated probes by 1-way ANOVA followed by Bonferroni's post test. […]

As for `C/C(=N\N=C(N)N)c1cc(NC(=O)CCCCCCCCC(=O)Nc2cc(/C(C)=N/N=C(N)N)cc(/C(C)=N/N=C(N)N)c2)cc(/C(C)=N/N=C(N)N)c1.Cl.Cl.Cl.Cl` [CNI-1493], the “reduction of MIP-1α expression” value was found to be 50% in series [1] (3 hours after IM) and 39% in series [1] (6 hours after IM). Moreover, in series [2], the IL-6 expression diminished result was “more than 55%”. The “ICAM-1 mRNA expression (fold upregulation)” value in series [3] (1 hour after IM) worked out at 3.3±0.70 fold; in series [3] (3 hours after IM) it was 7.2±2.8 fold. Also, the “anastomotic bursting pressure vs placebo” value in series [4] was “did not differ at any time”. Also, the “anastomotic hydroxyproline content vs placebo” value in series [4] is listed as “did not differ at any time”.
In the case of `C/C(=N\N=C(N)N)c1cc(NC(=O)CCCCCCCCC(=O)Nc2cc(/C(C)=N/N=C(N)N)cc(/C(C)=N/N=C(N)N)c2)cc(/C(C)=N/N=C(N)N)c1.CS(=O)(=O)O.CS(=O)(=O)O.CS(=O)(=O)O.CS(=O)(=O)O` [CPSI-2364], the “gastrointestinal transit, geometric center (GC)” value is 14.01+/−0.44 in series [5] (1 mg/kg i.v. once at 2 hours before operation); 13.00+/−0.27 in series [5] (1 mg/kg p.o. twice at 14 hours and 3 hours before operation).
